Laboratory results published in paper PMC3623016 (Journal of biomolecular screening, 2012).
“And” between values parts separate entries of the source, which are not always exact repeats. Equal entries are not always repeated.

Experiments:
[1] = test system: Jurkat-DNR cells
[2] = test system: Ig-MXP3 cells; experiment: Direct cytotoxicity; type: cell-based
[3] = target: T1, ABCG2 (Homo sapiens, UniProt Q9UNQ0); experiment: JC-1 efflux inhibition dose-response, flow cytometry, Ig-MXP3 cells; type: cell-based; conditions: quotient of average ABCB1 IC50 and average ABCG2 IC50, JC-1 efflux assay
T1 sequence (Q9UNQ0 1-655): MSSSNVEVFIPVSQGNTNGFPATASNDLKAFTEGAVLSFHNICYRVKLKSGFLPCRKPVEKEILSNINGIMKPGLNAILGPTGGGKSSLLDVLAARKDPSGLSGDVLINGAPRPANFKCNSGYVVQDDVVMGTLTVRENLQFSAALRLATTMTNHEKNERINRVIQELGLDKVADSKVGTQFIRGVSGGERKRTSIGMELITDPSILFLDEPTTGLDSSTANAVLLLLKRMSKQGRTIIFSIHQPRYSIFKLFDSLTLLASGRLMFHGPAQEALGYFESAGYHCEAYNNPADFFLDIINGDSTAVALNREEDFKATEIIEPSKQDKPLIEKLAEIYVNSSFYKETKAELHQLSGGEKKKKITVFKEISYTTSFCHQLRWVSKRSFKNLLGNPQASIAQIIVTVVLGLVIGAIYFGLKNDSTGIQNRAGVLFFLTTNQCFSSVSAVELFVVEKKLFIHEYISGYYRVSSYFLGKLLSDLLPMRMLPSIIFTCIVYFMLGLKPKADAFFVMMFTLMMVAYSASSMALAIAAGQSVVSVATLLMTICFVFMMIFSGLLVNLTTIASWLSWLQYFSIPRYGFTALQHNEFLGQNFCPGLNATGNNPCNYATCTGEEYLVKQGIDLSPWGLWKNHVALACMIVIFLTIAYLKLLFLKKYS

Row | Molecule | ABCB1 TD50 [1] [µM] | ABCG2 TD50 [2] [µM] | ∼Fold G2 Selective [3]
1 | O=C(NCCCN1CCOCC1)c1cnn2c(-c3ccccc3)cc(-c3ccccc3)nc12 [Compound 6, reversan, reference compound] | 7.04 | >100 | –
2 | O=C(c1ccco1)N1CCN(c2cc(-c3ccccc3)nc3cc(-c4cccc(Cl)c4)nn23)CC1 [Compound 8] | 6.77 | 6.00 | 6.4 fold
3 | Cc1nc2cc(-c3cccc(Cl)c3)nn2c(N2CCN(C(=O)c3ccco3)CC2)c1C [Compound 9] | >100 | 47.40 | 3.2 fold
4 | Cc1cc(N2CCN(C(=O)c3ccco3)CC2)n2nc(-c3cccc(Cl)c3)cc2n1 [Compound 10] | – | – | 2.1 fold
5 | O=C(c1ccoc1)N1CCN(c2cc(-c3ccccc3)nc3cc(-c4cccc(Cl)c4)nn23)CC1 [Compound 11] | – | – | 7 fold and 7.2 fold
6 | O=C(c1ccsc1)N1CCN(c2cc(-c3ccccc3)nc3cc(-c4cccc(Cl)c4)nn23)CC1 [Compound 12] | – | – | 2.8 fold
7 | O=C(c1ccccc1)N1CCN(c2cc(-c3ccccc3)nc3cc(-c4cccc(Cl)c4)nn23)CC1 [Compound 13] | – | – | 2.4 fold
8 | COc1ccccc1C(=O)N1CCN(c2cc(-c3ccccc3)nc3cc(-c4cccc(Cl)c4)nn23)CC1 [Compound 14] | – | – | 1.0 fold
9 | COc1cccc(C(=O)N2CCN(c3cc(-c4ccccc4)nc4cc(-c5cccc(Cl)c5)nn34)CC2)c1 [Compound 15] | >100 | >100 | 0.6 fold
10 | COc1ccc(C(=O)N2CCN(c3cc(-c4ccccc4)nc4cc(-c5cccc(Cl)c5)nn34)CC2)cc1 [Compound 16] | – | – | 1.0 fold
11 | O=C(c1ccccc1Cl)N1CCN(c2cc(-c3ccccc3)nc3cc(-c4cccc(Cl)c4)nn23)CC1 [Compound 17] | – | – | 1.4 fold
12 | O=C(c1cccc(Cl)c1)N1CCN(c2cc(-c3ccccc3)nc3cc(-c4cccc(Cl)c4)nn23)CC1 [Compound 18] | – | – | 1.4 fold
13 | O=C(c1ccc(Cl)cc1)N1CCN(c2cc(-c3ccccc3)nc3cc(-c4cccc(Cl)c4)nn23)CC1 [Compound 19] | – | – | 0.9 fold
14 | O=C(c1cccnc1)N1CCN(c2cc(-c3ccccc3)nc3cc(-c4cccc(Cl)c4)nn23)CC1 [Compound 20] | 4.72 | 10.30 | 2.5 fold
15 | O=C(c1ccncc1)N1CCN(c2cc(-c3ccccc3)nc3cc(-c4cccc(Cl)c4)nn23)CC1 [Compound 21] | 10.90 | 28.30 | 1.1 fold
16 | O=C(C1CCCCC1)N1CCN(c2cc(-c3ccccc3)nc3cc(-c4cccc(Cl)c4)nn23)CC1 [Compound 22] | – | – | 1.2 fold
17 | CC(=O)N1CCN(c2cc(-c3ccccc3)nc3cc(-c4cccc(Cl)c4)nn23)CC1 [Compound 23] | – | – | 0.9 fold
18 | O=C(Cc1ccccc1)N1CCN(c2cc(-c3ccccc3)nc3cc(-c4cccc(Cl)c4)nn23)CC1 [Compound 24] | 17.80 | >100 | 0.8 fold
19 | O=C(c1ccoc1)N1CCN(c2cc(-c3ccccc3F)nc3cc(-c4cccc(Cl)c4)nn23)CC1 [Compound 26] | – | – | 2.4 fold
20 | O=C(c1ccoc1)N1CCN(c2cc(-c3ccc(F)cc3)nc3cc(-c4cccc(Cl)c4)nn23)CC1 [Compound 27] | – | – | 2.3 fold
21 | COc1cccc(-c2cc(N3CCN(C(=O)c4ccoc4)CC3)n3nc(-c4cccc(Cl)c4)cc3n2)c1 [Compound 28] | – | – | 1.9 fold
22 | COc1ccc(-c2cc(N3CCN(C(=O)c4ccoc4)CC3)n3nc(-c4cccc(Cl)c4)cc3n2)cc1 [Compound 29] | – | – | 2.4 fold
23 | O=C(c1ccoc1)N1CCN(c2cc(-c3cccnc3)nc3cc(-c4cccc(Cl)c4)nn23)CC1 [Compound 30] | 5.33 | 5.77 | 2.9 fold
24 | O=C(c1ccoc1)N1CCN(c2cc(-c3ccncc3)nc3cc(-c4cccc(Cl)c4)nn23)CC1 [Compound 31] | 13.50 | 57.80 | 2.5 fold
25 | C#Cc1cc(N2CCN(C(=O)c3ccoc3)CC2)n2nc(-c3cccc(Cl)c3)cc2n1 [Compound 32] | – | – | 4.3 fold
26 | O=C(c1ccoc1)N1CCN(c2cc(-c3ccccc3)nc3cc(-c4ccc(Br)cc4)nn23)CC1 [Compound 33] | – | – | 1.7 fold

Row | Molecule | ABCB1 TD50 [1] [µM] | ABCG2 TD50 [2] [µM] | ∼Fold G2 Selective [3]
27 | COc1ccccc1-c1cc2nc(-c3ccccc3)cc(N3CCN(C(=O)c4ccoc4)CC3)n2n1 [Compound 34] | 4.37 | 6.50 | 4.8 fold
28 | COc1cccc(-c2cc3nc(-c4ccccc4)cc(N4CCN(C(=O)c5ccoc5)CC4)n3n2)c1 [Compound 35] | – | – | 2.0 fold
29 | COc1ccc(-c2cc3nc(-c4ccccc4)cc(N4CCN(C(=O)c5ccoc5)CC4)n3n2)cc1 [Compound 36] | 5.54 | >100 | 1.2 fold
30 | COc1ccccc1-c1cc2nc(-c3ccccc3)cc(N3CCN(C(=O)c4ccco4)CC3)n2n1 [Compound 37] | – | – | 2.9 fold
31 | COc1cccc(-c2cc3nc(-c4ccccc4)cc(N4CCN(C(=O)c5ccco5)CC4)n3n2)c1 [Compound 38] | – | – | 3.4 fold
32 | CCCN(CCc1ccccc1)C(=O)[C@@H]1OC(C(=O)O)=C[C@H](O)[C@H]1NC(C)=O [Compound 39] | – | – | 2.7 fold
33 | Cc1cccc(-c2cc3nc(-c4ccccc4)cc(N4CCN(C(=O)c5ccco5)CC4)n3n2)c1 [Compound 40] | – | – | 1.6 fold
34 | COc1ccccc1-c1cc2nc(-c3ccccc3)cc(N3CCN(C(=O)c4ccccc4)CC3)n2n1 [Compound 41] | – | – | 3.0 fold
35 | O=C(c1ccccc1)N1CCN(c2cc(-c3ccccc3)nc3cc(-c4cccc(F)c4)nn23)CC1 [Compound 42] | – | – | 1.9 fold
36 | O=C(c1ccccc1)N1CCN(c2cc(-c3ccccc3)nc3cc(-c4ccc(F)cc4)nn23)CC1 [Compound 43] | – | – | 2.0 fold
37 | COc1ccccc1-c1cc(N2CCN(C(=O)c3ccoc3)CC2)n2nc(-c3ccccc3)cc2n1 [Compound 44] | 3.73 | 7.62 | 1.2 fold
38 | COc1ccc(-c2cc(N3CCN(C(=O)c4ccoc4)CC3)n3nc(-c4ccccc4)cc3n2)cc1 [Compound 45] | – | – | 1.9 fold
39 | O=C(c1ccoc1)N1CCN(c2cc(-c3ccccc3F)nc3cc(-c4ccccc4)nn23)CC1 [Compound 46] | – | – | 10.0 fold
40 | O=C(c1ccoc1)N1CCN(c2cc(-c3cccc(F)c3)nc3cc(-c4ccccc4)nn23)CC1 [Compound 47] | – | – | 4.2 fold
41 | O=C(c1ccoc1)N1CCN(c2cc(-c3ccc(F)cc3)nc3cc(-c4ccccc4)nn23)CC1 [Compound 48] | – | – | 1.8 fold
42 | CC(C)(C)c1cc(N2CCN(C(=O)c3ccoc3)CC2)n2nc(-c3ccccc3)cc2n1 [Compound 49] | – | – | 0.5 fold
43 | O=C(c1ccoc1)N1CCN(c2cc(-c3ccco3)nc3cc(-c4ccco4)nn23)CC1 [Compound 52] | 1.93 | >100 | –
44 | O=C(c1ccoc1)N1CCN(c2cc(-c3ccco3)nc3cc(-c4cccc(Cl)c4)nn23)CC1 [Compound 53] | 8.53 | 10.80 | –
45 | COc1cccc(-c2cc3nc(-c4ccco4)cc(N4CCN(C(=O)c5ccoc5)CC4)n3n2)c1 [Compound 56] | 5.52 | >100 | –
46 | COc1ccc(-c2cc3nc(-c4ccco4)cc(N4CCN(C(=O)c5ccoc5)CC4)n3n2)cc1 [Compound 57] | >100 | >100 | –
47 | O=C(c1ccoc1)N1CCN(c2cc(-c3ccoc3)nc3cc(-c4ccccc4)nn23)CC1 [Compound 61] | 7.33 | 18.30 | –
48 | COc1cccc(-c2cc(N3CCN(C(=O)c4ccoc4)CC3)n3nc(-c4ccccc4)cc3n2)c1 [Compound 65] | 5.77 | 67.80 | 83 fold
49 | CC(=O)N1CCN(c2cc(-c3ccco3)nc3cc(-c4ccccc4)nn23)CC1 [Compound 74] | 10.10 | >100 | –
50 | CC(=O)N1CCN(c2cc(-c3ccco3)nc3cc(-c4cccc(Cl)c4)nn23)CC1 [Compound 87] | 17.60 | >100 | –
51 | COc1cccc(-c2cc3nc(-c4ccco4)cc(N4CCN(C(C)=O)CC4)n3n2)c1 [Compound 88] | 49.30 | >100 | –
52 | XR9051 [Compound 2, reference compound] | 1.97 | 21.40 | –
